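Exposure lasted 48 hours, with cells grown in 96-well plates and compounds tested at five concentrations. TGI marks complete inhibition of growth.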 Some results are limits rather than exact numbers.

One experiment concerns OVCAR-5 ovarian. Kind of experiment: NCI anticancer screen, dose series, 48 h.
`O=c1oc2ccccc2cc1-c1cn2ccccc2n1` displayed a TGI of 46.7 µM.
`[N-]=[N+]=NC1C(O)C(CO)OC1n1ccc(=O)[nH]c1=O` (stereo not given): the TGI is > 875 µM.
The same measure, in the same setting: then `O=C(Nc1nncs1)NS(=O)(=O)n1c(=S)sc2ccccc21`, with > 100 µM; and `COC(=O)CC1C=CC(C)(OC)OO1` (stereo not given), with > 100 µM; and `COC(=O)C1=C(C(=O)Nc2cccnc2Cl)N(c2ccc(OC)cc2[N+](=O)[O-])C(c2ccc(C)cc2)=CC1c1ccc(OC)cc1OC` (stereo not given), with > 84.9 µM.

Another experiment concerns UO-31 renal. Nature of the experiment: NCI anticancer screen, dose series, 48 h.
For the compound `O=c1oc2ccccc2cc1-c1cn2ccccc2n1`, the TGI is 7.02 µM.
Turning to `[N-]=[N+]=NC1C(O)C(CO)OC1n1ccc(=O)[nH]c1=O` (stereo not given), the TGI was > 875 µM.
For the compound `O=C(Nc1nncs1)NS(=O)(=O)n1c(=S)sc2ccccc21`, the TGI was > 100 µM.
In the case of `COC(=O)CC1C=CC(C)(OC)OO1` (stereo not given), the TGI is > 100 µM.
For `COC(=O)C1=C(C(=O)Nc2cccnc2Cl)N(c2ccc(OC)cc2[N+](=O)[O-])C(c2ccc(C)cc2)=CC1c1ccc(OC)cc1OC` (stereo not given), the TGI was > 76.2 µM.

The next experiment concerns UACC-257 melanoma. Kind of experiment: NCI anticancer screen, dose series, 48 h.
For `O=c1oc2ccccc2cc1-c1cn2ccccc2n1`, the TGI came to 14.3 µM.
As for `[N-]=[N+]=NC1C(O)C(CO)OC1n1ccc(=O)[nH]c1=O` (stereo not given), the TGI is > 875 µM.
Turning to `O=C(Nc1nncs1)NS(=O)(=O)n1c(=S)sc2ccccc21`, the TGI was > 100 µM.
Same read-out and setting: then `COC(=O)CC1C=CC(C)(OC)OO1` (stereo not given), with > 100 µM.
On the same count and under the same terms, under `COC(=O)C1=C(C(=O)Nc2cccnc2Cl)N(c2ccc(OC)cc2[N+](=O)[O-])C(c2ccc(C)cc2)=CC1c1ccc(OC)cc1OC` (stereo not given) stands > 100 µM.

The subject of a further experiment is IGROV1 ovarian. Kind of experiment: NCI anticancer screen, dose series, 48 h.
As for `O=c1oc2ccccc2cc1-c1cn2ccccc2n1`, the TGI amounted to 26.3 µM.
Consider `[N-]=[N+]=NC1C(O)C(CO)OC1n1ccc(=O)[nH]c1=O` (stereo not given), for which the TGI was > 875 µM.
Same read-out and setting: under `O=C(Nc1nncs1)NS(=O)(=O)n1c(=S)sc2ccccc21` stands > 100 µM; under `COC(=O)CC1C=CC(C)(OC)OO1` (stereo not given), > 100 µM.
In turn, `COC(=O)C1=C(C(=O)Nc2cccnc2Cl)N(c2ccc(OC)cc2[N+](=O)[O-])C(c2ccc(C)cc2)=CC1c1ccc(OC)cc1OC` (stereo not given) came in with a TGI of 33.7 µM.

Another experiment deals with U251 CNS. Nature of the experiment: NCI anticancer screen, dose series, 48 h.
Compound `O=c1oc2ccccc2cc1-c1cn2ccccc2n1` came in with a TGI of 5.66 µM.
Same read-out and setting: under `[N-]=[N+]=NC1C(O)C(CO)OC1n1ccc(=O)[nH]c1=O` (stereo not given) stands > 875 µM; under `O=C(Nc1nncs1)NS(=O)(=O)n1c(=S)sc2ccccc21`, > 100 µM; under `COC(=O)CC1C=CC(C)(OC)OO1` (stereo not given), > 100 µM.
Same read-out and setting: under `COC(=O)C1=C(C(=O)Nc2cccnc2Cl)N(c2ccc(OC)cc2[N+](=O)[O-])C(c2ccc(C)cc2)=CC1c1ccc(OC)cc1OC` (stereo not given) stands 40.3 µM.

Another experiment concerns 786-0 renal. Kind of experiment: NCI anticancer screen, dose series, 48 h.
Regarding `O=c1oc2ccccc2cc1-c1cn2ccccc2n1`, the TGI stood at 13.4 µM.
As for `[N-]=[N+]=NC1C(O)C(CO)OC1n1ccc(=O)[nH]c1=O` (stereo not given), the TGI was > 875 µM.
The same measure, in the same setting: then `O=C(Nc1nncs1)NS(=O)(=O)n1c(=S)sc2ccccc21`, with > 100 µM; and `COC(=O)CC1C=CC(C)(OC)OO1` (stereo not given), with > 100 µM.
`COC(=O)C1=C(C(=O)Nc2cccnc2Cl)N(c2ccc(OC)cc2[N+](=O)[O-])C(c2ccc(C)cc2)=CC1c1ccc(OC)cc1OC` (stereo not given): the TGI is > 87.7 µM.

A further experiment concerns MDA-MB-435. Nature of the experiment: NCI anticancer screen, dose series, 48 h.
For `O=c1oc2ccccc2cc1-c1cn2ccccc2n1`, the TGI is 14.5 µM.
The same measure, in the same setting: then `[N-]=[N+]=NC1C(O)C(CO)OC1n1ccc(=O)[nH]c1=O` (stereo not given), with > 875 µM.
Still for that read-out and setting: then `O=C(Nc1nncs1)NS(=O)(=O)n1c(=S)sc2ccccc21`, with > 100 µM.
On the same count and under the same terms, then `COC(=O)CC1C=CC(C)(OC)OO1` (stereo not given), with > 100 µM.
Take `COC(=O)C1=C(C(=O)Nc2cccnc2Cl)N(c2ccc(OC)cc2[N+](=O)[O-])C(c2ccc(C)cc2)=CC1c1ccc(OC)cc1OC` (stereo not given): the TGI was > 100 µM.

The next experiment has as its system SK-OV-3 ovarian. Nature of the experiment: NCI anticancer screen, dose series, 48 h.
`O=c1oc2ccccc2cc1-c1cn2ccccc2n1` returned a TGI of 15.6 µM.
The same measure, in the same setting: then `[N-]=[N+]=NC1C(O)C(CO)OC1n1ccc(=O)[nH]c1=O` (stereo not given), with > 875 µM; and `O=C(Nc1nncs1)NS(=O)(=O)n1c(=S)sc2ccccc21`, with > 100 µM; and `COC(=O)CC1C=CC(C)(OC)OO1` (stereo not given), with > 100 µM.
For `COC(=O)C1=C(C(=O)Nc2cccnc2Cl)N(c2ccc(OC)cc2[N+](=O)[O-])C(c2ccc(C)cc2)=CC1c1ccc(OC)cc1OC` (stereo not given), the TGI was 62.9 µM.

A further experiment has as its system SR leukemia. Kind of experiment: NCI anticancer screen, dose series, 48 h.
`O=c1oc2ccccc2cc1-c1cn2ccccc2n1`: the TGI is > 35.5 µM.
On the same count and under the same terms, then `[N-]=[N+]=NC1C(O)C(CO)OC1n1ccc(=O)[nH]c1=O` (stereo not given), with > 875 µM.
On to `O=C(Nc1nncs1)NS(=O)(=O)n1c(=S)sc2ccccc21`, for which the TGI is > 100 µM.
Turning to `COC(=O)CC1C=CC(C)(OC)OO1` (stereo not given), the TGI is > 100 µM.
On the same count and under the same terms, then `COC(=O)C1=C(C(=O)Nc2cccnc2Cl)N(c2ccc(OC)cc2[N+](=O)[O-])C(c2ccc(C)cc2)=CC1c1ccc(OC)cc1OC` (stereo not given), with 21.6 µM.

The subject of a further experiment is HS 578T breast. Nature of the experiment: NCI anticancer screen, dose series, 48 h.
The compound `O=c1oc2ccccc2cc1-c1cn2ccccc2n1` displayed a TGI of 53.5 µM.
Same read-out and setting: under `[N-]=[N+]=NC1C(O)C(CO)OC1n1ccc(=O)[nH]c1=O` (stereo not given) stands > 875 µM.
Same read-out and setting: then `O=C(Nc1nncs1)NS(=O)(=O)n1c(=S)sc2ccccc21`, with > 100 µM.
Same read-out and setting: then `COC(=O)CC1C=CC(C)(OC)OO1` (stereo not given), with > 100 µM; and `COC(=O)C1=C(C(=O)Nc2cccnc2Cl)N(c2ccc(OC)cc2[N+](=O)[O-])C(c2ccc(C)cc2)=CC1c1ccc(OC)cc1OC` (stereo not given), with 67.4 µM.

The record behind these values is PubChem BioAssay (NCI).
